Columns and labels:
Notch activity = test: Notch inhibition in organoid cultures with the γ-secretase inhibitor DAPT; assay type: cell-based, human
liver organoid cultures = test: Notch dependency test: DLL4 added to Matrigel drops of liver organoid culture with hematopoietic cytokines; assay type: cell-based, human
Experimental: Day 7 spheroids were collected by manual pipetting and pelleted by centrifugation. Media was aspirated and cells were embedded in 100% Matrigel by gentle pipetting to homogenize the cell pellet. Optionally, a Notch activator or ligand is added to the Matrigel (e.g. 10 μg/mL, of […]). Alternatively, optionally, UCB cells are added to the Matrigel for co-culture with organoids (e.g. 1,000 UCB cells per 75 μL of Matrigel). 250 μL Matrigel (Corning) was used per well of a 24-well plate of definitive endoderm culture. 75 μL Matrigel drops were made, 1 drop per each well of a fresh 24-well plate (VWR). The plates were placed at 37° C. in an atmosphere of 5% CO2/95% air for 5-15 minutes. After the Matrigel was solidified, Advanced DMEM/F12 with 1×B27, 1×N2, 2 mM L-glutamine, 15 mM HEPES, and 1× penicillin/streptomycin was added to the wells. This media was supplemented with 20 ng/mL BMP4 and 10 ng/mL, FGF2 for 4 days, and then the BMP4 and FGF2 were removed.
Organoids were isolated from Matrigel drops and washed with 1×PBS. HLOs were dissociated to single cells by treatment with Trypsin-EDTA (0.05%, with phenol red, Gibco) for 10 minutes. Cells were washed in DMEM/F12 with 10% FBS and suspended in PBS with 2% FBS. After filtration (e.g. through a 40-50 μm nylon filter), the single cells were subjected to flow cytometry with the following antibodies: anti-CD45-APC (Miltenyl, 130-098-143), anti-CD34-APC/Cy7 (BioLegend, 343513), anti-CD11b-PE/Cy7 (BioLegend, 301322), anti-CD19-BV421 (BioLegend, 302233), anti-CD27-AF700 (BioLegend, 356415), anti-CD43-FITC (BioLegend, 315204). For mouse engraftment experiments, anti-mouse CD45-BV421 (BioLegend, 103133) was used.
RNA was isolated using the RNeasy mini kit (Qiagen). Reverse transcription was carried out using the High-Capacity cDNA. Reverse Transcription Kit (Thermo Fisher) according to manufacturer's protocol. qPCR was carried out in duplicate using TagMan Gene Expression Master Mix (Applied Biosystems) and probes from the Universal Probe Library (Roche) on a QuantStudio 3 Real-Time PCR System (Thermo Fisher). […]

| HES1 expression (Notch activity; different concentrations of DAPT, 4 days of treatment from day 6, FIG. 10C) | albumin expression (Notch activity; different concentrations of DAPT, 4 days of treatment from day 6, FIG. 10D) | visible erythrocytes (Notch activity; light microscopy, 100 μM DAPT vs DMSO control, 12 days of treatment, FIG. 10A) | Molecule | production of CD45+ hematopoietic cells (liver organoid cultures; DLL4 1-10 μg/mL in Matrigel drops at organoid seeding, medium with IL-3, IL-34, GM-CSF 100 ng/mL each, FIG. 8) | IL-6 expression (liver organoid cultures; qPCR, organoids at day 18, DLL4 plus cytokines IL-3, IL-34, GM-CSF, FIG. 9A) | albumin expression (liver organoid cultures; qPCR, organoids at day 18, DLL4 plus cytokines IL-3, IL-34, GM-CSF, FIG. 9B) |
| --- | --- | --- | --- | --- | --- | --- |
| decrease | maintaining albumin expression | decrease in visible erythrocytes | C[C@H](NC(=O)Cc1cc(F)cc(F)c1)C(=O)N[C@H](C(=O)OC(C)(C)C)c1ccccc1 [DAPT] |  |  |  |
|  |  |  | DLL4: Notch ligand added to the Matrigel drops during organoid seeding | increased the efficiency of cytokines in producing CD45^+ hematopoietic cells | significant increase | modest decrease |
